# Laboratory results as given in ChEMBL document CHEMBL3727358, “Inhibitors of inducible form of 6-phosphofructose-2-kinase” (2014).
# Legend:
# [1] = biological target: T1, 6-phosphofructo-2-kinase/fructose-2,6-bisphosphatase 3 (Homo sapiens, UniProt Q16875); experiment: Inhibition of iPFK2 (unknown origin) assessed as reduction in enzyme-mediated fructose-6-phosphate phosphorylation by measuring ATP consumption incubated for 3 hrs by luciferase-luciferin-coupled chemiluminescence assay
# [2] = biological target: T1, 6-phosphofructo-2-kinase/fructose-2,6-bisphosphatase 3; experiment: Inhibition of iPFK2 (unknown origin) assessed as reduction in enzyme-mediated fructose-6-phosphate phosphorylation by measuring NADH absorbance pre-incubated for 10 mins before ATP/substrate addition followed by incubation for 1 hr by UV-Visible spectrometry based iPFK-2/PPI-PFK coupled enzyme assay
# T1 sequence (Q16875 whole entry): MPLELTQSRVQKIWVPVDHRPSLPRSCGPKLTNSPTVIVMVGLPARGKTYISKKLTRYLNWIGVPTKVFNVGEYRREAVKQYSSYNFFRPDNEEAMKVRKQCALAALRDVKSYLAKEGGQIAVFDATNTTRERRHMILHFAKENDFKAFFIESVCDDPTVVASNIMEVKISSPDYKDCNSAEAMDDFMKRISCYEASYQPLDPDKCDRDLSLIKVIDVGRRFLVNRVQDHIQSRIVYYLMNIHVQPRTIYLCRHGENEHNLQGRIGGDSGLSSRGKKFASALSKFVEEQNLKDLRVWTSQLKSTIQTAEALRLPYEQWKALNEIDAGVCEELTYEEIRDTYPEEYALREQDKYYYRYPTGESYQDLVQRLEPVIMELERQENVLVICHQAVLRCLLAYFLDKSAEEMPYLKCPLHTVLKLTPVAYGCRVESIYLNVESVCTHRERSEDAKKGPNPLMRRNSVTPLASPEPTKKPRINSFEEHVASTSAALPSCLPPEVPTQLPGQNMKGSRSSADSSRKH
SMILES,IC50 [1] [nM],IC50 [2] [nM]
Cc1nc(NC(C)c2cccc(-c3c(C)noc3C)c2)cc(-c2ccc3ncsc3c2)n1 (centres undefined),> 1000,500
Cc1nc(NC(C)c2cccc(N)c2)cc(-c2ccc3ncsc3c2)n1 (centres undefined),> 1000,500
Cc1nc(NC(C)c2cccc(-c3cccc(F)c3)c2)cc(-c2ccc3ncsc3c2)n1 (centres undefined),> 1000,> 1000
COc1ccc(-c2cccc(C(C)Nc3cc(-c4ccc5ncsc5c4)nc(C)n3)c2)cn1 (centres undefined),> 1000,500
Cc1nc(NC(C)c2cccc(OCCS(C)(=O)=O)c2)cc(-c2ccc3ncsc3c2)n1 (centres undefined),> 1000,> 1000
COC(=O)COc1ccc(F)c(CNc2cc(-c3ccc4ncsc4c3)nc(C)n2)c1,> 1000,> 1000
Cc1nc(NC(C)c2cccc(OCC3CCCN(C(=O)OC(C)(C)C)C3)c2)cc(-c2ccc3occ(C)c3c2)n1 (centres undefined),> 1000,500
Cc1cc(COc2ccc(F)c(CNc3cc(-c4ccc5ncsc5c4)nc(C)n3)c2)n(C)n1,> 1000,> 1000
CCOC(=O)c1cncc(-c2cccc(C(C)Nc3cc(-c4ccc5ncsc5c4)nc(C)n3)c2)c1 (centres undefined),> 1000,500
Cc1ccc(OCc2noc(COc3cccc(C(C)Nc4cc(-c5ccc6ncsc6c5)nc(C)n4)c3)n2)cc1 (centres undefined),> 1000,> 1000
Cc1nc(NC(C)c2cccc(-c3cnn(C)c3)c2)cc(-c2ccc(F)c(C)c2)n1 (centres undefined),> 1000,500
Cc1nc(N[C@@H](C)c2ccccc2)cc(-c2ccc3ncsc3c2)n1,> 1000,> 1000
Cc1nc(NC(C)c2cccc(-c3ccoc3)c2)cc(-c2ccc3ncsc3c2)n1 (centres undefined),> 1000,> 1000
Cc1nc(NCC2CCCNC2)cc(-c2ccc3ncsc3c2)n1 (centres undefined),> 1000,> 1000
Cc1nc(NC(C)c2cccc(-c3ccsc3)c2)cc(-c2ccc3ncsc3c2)n1 (centres undefined),> 1000,> 1000
Cc1ccc(COc2cccc(C(C)Nc3cc(-c4ccc5ncsc5c4)nc(C)n3)c2)cc1 (centres undefined),> 1000,> 1000
COC(=O)c1coc(COc2cccc(C(C)Nc3cc(-c4ccc5ncsc5c4)nc(C)n3)c2)n1 (centres undefined),> 1000,> 1000
Cc1nc(NC(C)c2ccccc2C)cc(-c2ccc3occ(C)c3c2)n1 (centres undefined),> 1000,> 1000
Cc1nc(NC(C)c2cccc(-c3cnn(C)c3)c2)cc(-c2ccc(C(C)C)cc2)n1 (centres undefined),> 1000,500
Cc1nc(NC(C)c2cccc(OCCn3cccn3)c2)cc(-c2ccc3ncsc3c2)n1 (centres undefined),> 1000,500
COc1cccc([C@H](C)Nc2cc(-c3cnc4ccn(C)c4c3)nc(C)n2)c1,> 1000,> 1000
Cc1nc(NCc2cc(Br)ccc2F)cc(-c2ccc3ncsc3c2)n1,> 1000,> 1000
Cc1nc(N[C@H](C)c2ccc(F)c(-c3cnn(C)c3)c2)cc(-c2ccc3occ(C)c3c2)n1,> 1000,500
Cc1nc(NC(C)c2cccc(-c3cccnc3F)c2)cc(-c2ccc3ncsc3c2)n1 (centres undefined),> 1000,500
COC(=O)COc1cccc(C(C)Nc2cc(-c3ccc4ncsc4c3)nc(C)n2)c1 (centres undefined),> 1000,> 1000

# Continued, values first:
IC50 [1] [nM],IC50 [2] [nM],SMILES
500,> 1000,COc1cccc(-c2cc(NC(C)c3cccc(-c4cnn(C)c4)c3)nc(C)n2)c1F (centres undefined)
> 1000,500,CCc1coc2ccc(-c3cc(N[C@@H](C)c4cccc(Br)c4)nc(C)n3)cc12
> 1000,> 1000,Cc1nc(NC(C)c2cccc(-c3cnn(C)c3)c2)cc(-c2ccc(C(F)(F)F)cc2)n1 (centres undefined)
> 1000,500,Cc1nc(NC(C)c2cccc(-c3ccc[nH]3)c2)cc(-c2ccc3ncsc3c2)n1 (centres undefined)
500,> 1000,Cc1nc(NC(C)c2cccc(OCc3nc(C(=O)O)co3)c2)cc(-c2ccc3ncsc3c2)n1 (centres undefined)
> 1000,500,Cc1nc(NC(C)c2cccc(OCC(F)(F)F)c2)cc(-c2ccc3ncsc3c2)n1 (centres undefined)
500,500,Cc1nc(NC(C)c2cccc(OCC(=O)NC3CCCCC3)c2)cc(-c2ccc3ncsc3c2)n1 (centres undefined)
500,> 1000,Cc1nc(NCc2ccccc2F)cc(-c2ccc3ncsc3c2)n1
> 1000,500,Cc1nc(NC(C)c2ccc(F)c(Br)c2)cc(-c2ccc3occ(C)c3c2)n1 (centres undefined)
500,500,Cc1nc(NC(C)c2cccc([N+](=O)[O-])c2)cc(-c2ccc3ncsc3c2)n1 (centres undefined)
500,> 1000,Cc1nc(N[C@@H]2CCCc3ccccc32)cc(-c2cnc3ccccc3c2)n1
500,> 1000,COc1ccc(F)c(CNc2cc(-c3ccc4ncsc4c3)nc(C)n2)c1
500,> 1000,Cc1nc(NCC2CCCN(C(=O)C3CCCC3)C2)cc(-c2ccc3ncsc3c2)n1 (centres undefined)
500,500,Cc1cc(-c2cccc(C(C)Nc3cc(-c4ccc5ncsc5c4)nc(C)n3)c2)ccn1 (centres undefined)
500,500,Cc1nc(NC(C)c2cccc(-c3ccc(N(C)C)nc3)c2)cc(-c2ccc3ncsc3c2)n1 (centres undefined)
500,> 1000,Cc1nc(N[C@H](C)c2cccc(-n3cnnn3)c2)cc(-c2ccc3occ(C)c3c2)n1
500,> 1000,Cc1nc(NCC2CCCN(C(=O)C3(C)CC3)C2)cc(-c2ccc3ncsc3c2)n1 (centres undefined)
